Test results published in patent US12116371B2, “Substituted pyridines as irreversible inhibitors of menin-MLL interaction” (BIOMEA FUSION, INC., priority 2018, dated 2024).
Like-named read-outs stand apart in the source and are kept apart here.

Tests used:
Assay type in all cases: cell-based
SK-LU-1 cells = test: Proliferation assay, cells in adhesion; settings: for IC50: Homo sapiens
Panc 10.05 cells = test: Proliferation assay, cells in adhesion; settings: for IC50: Homo sapiens
NCI-H23 cells = test: Proliferation assay, cells in adhesion; settings: for IC50: Homo sapiens
MIAPaCa-2/AMG510 cells = test: Proliferation assay, cells in adhesion; settings: for IC50: Homo sapiens
KG-1 cells = test: Long term proliferation assay, Cell Titer-Glo read-out; settings: for IC50: Homo sapiens
Experimental: (§1) Compounds of invention are tested in the 5 suspension lines by 14-day long-term proliferation assay.
(§2) The compound is tested in 10-pt dose titration (client will determine the starting concentration and the dilution scheme) and the final DMSO concentration is kept at 0.2%.
(§3) On Day 0, in a flat bottom 96-well plate, add 100 μL of cells per well at the densities optimized. Prepare compounds in DMSO at 500× final concentration. Dilute the compounds with DMSO at the dilution. Dilute the compounds in media at 3× final concentration. Add 50 μL of compound or DMSO at 3× final concentration to each well. Final volume in each well is 150 μL, and final concentration of DMSO is 0.2%. Also include 3 untreated control wells, by adding 50 μL of media alone. Incubate plates for 96 hours.
(§4) To do this take the total viable cell count calculated using step: • 1. Take the average of the replicates for each dose in order to be used in splitting the cells. • 2. Use a 96 well V-bottom plate to spin down the cells to remove old media and compound to split the cells. • 3. Based on the split ratio place the proper amount of media and cells into the V-bottom plate, and spin the plate at 1100 rpm for 5 minutes. • 4. Following the spin remove the media, careful not to disturb the cell pellet. Re-suspend pellet in 100 μL fresh media, and add to a new 96-well flat bottom plate. • 5. Add fresh compound, in the same manner as Step 3). • 6. Incubate plates for 72 hours. Repeat steps 5)-10) on Day 7. • 7. Incubate plates for 96 hours. Repeat Step 5)-10) on Day 11. • 8. Incubate 72 hours and repeat step 5) to take a final count. • 9. Data Analysis
(§5) To calculate growth for days 4, 7, 11, and 14: • 1. Calculate the split factor for day 4 to 7, day 7 to 11, and day 11-14. The split factor is the viable cells/mL on Day X (either 4, 7 or 11) divided by the density the cells are being split back to. • 2. For growth of cells from day 4 to 7, multiply the day 7 viable cells/mL density by the split factor from day 4. • 3. For growth of cells from day 7 to 11, multiply the day 11 viable cells/mL density by the days 4, and 7 split factors. • 4. For growth of cells from Day 11 to 14, multiply the Day 14 viable cells/mL density by the days 4, 7, and 11 split factors. • 5. Plot growth on semi-log chart (viable cells/mL on Y axis, in log, and days on X axis). • 6. The growth inhibition was calculated with the formula ((untreated cell numbers-treated cell numbers)/untreated cell)). • 7. Calculate the IC50 for each compound in each line using XLFit (Sigmoidal Dose-Response Model, y=(Bottom+((Top-Bottom)/(1+((IC50/×)^Hill))))).

OCI-AML-3 cells = test: as above; settings: for IC50: Homo sapiens; for % max: OCI-AML3
Experimental: as §1, §2, §3, §4, §5

## CN(C)C/C=C/C(=O)Nc1ccc(CC(=O)Nc2ccc(-c3cc4c(N5CCOCC5)ncnc4[nH]3)cc2)cc1 [Compound 5]
SK-LU-1 cells; SK-LU-1, SK-LU-1, T4, read-out: IC50
  IC50: > 5 µM
SK-LU-1 cells; SK-LU-1, SK-LU-1, T4, read-out: pIC50 (converted)
  IC50: > 5.01 µM
SK-LU-1 cells; SK-LU-1, SK-LU-1, T7, read-out: IC50
  IC50: > 5 µM
SK-LU-1 cells; SK-LU-1, SK-LU-1, T7, read-out: pIC50 (converted)
  IC50: > 5.01 µM
SK-LU-1 cells; SK-LU-1, SK-LU-1, T11, read-out: IC50
  IC50: > 5 µM
SK-LU-1 cells; SK-LU-1, SK-LU-1, T11, read-out: pIC50 (converted)
  IC50: > 5.01 µM
SK-LU-1 cells; SK-LU-1, T4
  % max: <50%
SK-LU-1 cells; SK-LU-1, T7
  % max: <50%
SK-LU-1 cells; SK-LU-1, T11
  % max: <50%
Panc 10.05 cells; Panc1005, Panc 10.05, T4, read-out: IC50
  IC50: > 5 µM
Panc 10.05 cells; Panc1005, Panc 10.05, T4, read-out: pIC50 (converted)
  IC50: > 5.01 µM
Panc 10.05 cells; Panc1005, Panc 10.05, T7, read-out: IC50
  IC50: > 5 µM
Panc 10.05 cells; Panc1005, Panc 10.05, T7, read-out: pIC50 (converted)
  IC50: > 5.01 µM
Panc 10.05 cells; Panc1005, Panc 10.05, T11, read-out: IC50
  IC50: 4.17 µM
Panc 10.05 cells; Panc1005, Panc 10.05, T11, read-out: pIC50 (converted)
  IC50: 4.17 µM
Panc 10.05 cells; Panc 10.05, T4
  % max: <50%
Panc 10.05 cells; Panc 10.05, T7
  % max: <50%
Panc 10.05 cells; Panc 10.05, T11
  % max: 50%
NCI-H23 cells; NCI-H23, NCI-H23, T4, read-out: IC50
  IC50: > 5 µM
NCI-H23 cells; NCI-H23, NCI-H23, T4, read-out: pIC50 (converted)
  IC50: > 5.01 µM
NCI-H23 cells; NCI-H23, NCI-H23, T7, read-out: IC50
  IC50: > 5 µM
NCI-H23 cells; NCI-H23, NCI-H23, T7, read-out: pIC50 (converted)
  IC50: > 5.01 µM
NCI-H23 cells; NCI-H23, NCI-H23, T11, read-out: IC50
  IC50: > 5 µM
NCI-H23 cells; NCI-H23, NCI-H23, T11, read-out: pIC50 (converted)
  IC50: > 5.01 µM
NCI-H23 cells; NCI-H23, T4
  % max: <50%
NCI-H23 cells; NCI-H23, T7
  % max: <50%
NCI-H23 cells; NCI-H23, T11
  % max: <50%
MIAPaCa-2/AMG510 cells; MIA PaCa-2, MIAPaCa-2/AMG510, T4, read-out: IC50
  IC50: 0.81 µM
MIAPaCa-2/AMG510 cells; MIA PaCa-2, MIAPaCa-2/AMG510, T4, read-out: pIC50 (converted)
  IC50: 0.813 µM
MIAPaCa-2/AMG510 cells; MIA PaCa-2, MIAPaCa-2/AMG510, T7, read-out: IC50
  IC50: 0.35 µM
MIAPaCa-2/AMG510 cells; MIA PaCa-2, MIAPaCa-2/AMG510, T7, read-out: pIC50 (converted)
  IC50: 0.347 µM
MIAPaCa-2/AMG510 cells; MIAPaCa-2/AMG510, T11, read-out: IC50
  IC50: 0.27 µM
MIAPaCa-2/AMG510 cells; MIAPaCa-2/AMG510, T11, read-out: pIC50 (converted)
  IC50: 0.269 µM
MIAPaCa-2/AMG510 cells; MIAPaCa-2/AMG510, T4
  % max: 92%
MIAPaCa-2/AMG510 cells; MIAPaCa-2/AMG510, T7
  % max: 98%
MIAPaCa-2/AMG510 cells; MIAPaCa-2/AMG510, T11
  % max: 99%
KG-1 cells; 96 h, Day 4, Cell Titer-Glo, read-out: Day 4 IC50
  IC50: > 5 µM
KG-1 cells; 168 h, Day 7, Cell Titer-Glo, read-out: Day 7 IC50
  IC50: > 5 µM
KG-1 cells; 264 h, Day 11, Cell Titer-Glo, read-out: Day 11 IC50
  IC50: 4.68 µM
KG-1 cells; 336 h, Day 14, Cell Titer-Glo, read-out: Day 14 IC50
  IC50: 4.07 µM
KG-1 cells; T4, CellTiter-Glo, read-out: IC50
  IC50: > 5 µM
KG-1 cells; T4, CellTiter-Glo, read-out: pIC50 (converted)
  IC50: > 5.01 µM
KG-1 cells; T11, CellTiter-Glo, read-out: IC50
  IC50: 4.68 µM
KG-1 cells; T11, CellTiter-Glo, read-out: pIC50 (converted)
  IC50: 4.68 µM
KG-1 cells; T4, CellTiter-Glo
  % max: <50%
KG-1 cells; T11, CellTiter-Glo
  % max: 59%
OCI-AML-3 cells; OCI-AML-3, 96 h, OCI-AML-3, Day 4, Cell Titer-Glo, read-out: Day 4 IC50
  IC50: 0.83 µM
OCI-AML-3 cells; OCI-AML-3, 168 h, OCI-AML-3, Day 7, Cell Titer-Glo, read-out: Day 7 IC50
  IC50: 0.66 µM
OCI-AML-3 cells; OCI-AML-3, 264 h, OCI-AML-3, Day 11, Cell Titer-Glo, read-out: Day 11 IC50
  IC50: 0.58 µM
OCI-AML-3 cells; OCI-AML-3, 336 h, OCI-AML-3, Day 14, Cell Titer-Glo, read-out: Day 14 IC50
  IC50: 0.6 µM
OCI-AML-3 cells; OCI-AML-3, OCI-AML3, T4, CellTiter-Glo, read-out: IC50
  IC50: 0.83 µM
OCI-AML-3 cells; OCI-AML-3, OCI-AML3, T4, CellTiter-Glo, read-out: pIC50 (converted)
  IC50: 0.832 µM
OCI-AML-3 cells; OCI-AML-3, OCI-AML3, T11, CellTiter-Glo, read-out: IC50
  IC50: 0.58 µM
OCI-AML-3 cells; OCI-AML-3, OCI-AML3, T11, CellTiter-Glo, read-out: pIC50 (converted)
  IC50: 0.575 µM
OCI-AML-3 cells; T4, CellTiter-Glo
  % max: 97%
OCI-AML-3 cells; T11, CellTiter-Glo
  % max: 99%
